Results from patent US11713335B2, “Aminocoumarin compounds and methods of their use” (President and Fellows of Harvard College, priority 2018, dated 2023).
Converted amounts (≈) assume the structure as drawn. Like-named read-outs stand apart in the source and are kept apart here.

Experiments:
Type in all cases: cell-based
[1] = test system: E. cloacae 13047; assay: Minimal inhibitory concentration, E. cloacae 13047; details: 16 hour minimal inhibitory concentration at 37° C., read-out: MIC (μM) E. cloacae 13047
Experimental: (§1) General Procedure for Determination of Minimal Inhibitory Concentrations
(§2) Overnight cultures (5 mL) of bacterial strains were grown in LB media or TSA media (for S. aureus) at 37° C. and with shaking at 220 rpm until saturation. The overnight culture was diluted serially 1:100 (50 μL in 5 mL sterile media) and then 1:100 (250 μL in 25 mL sterile media). The 25 mL of diluted culture was then dispensed to a sterile 96 well plate (Corning #3370). 198 μL of culture were dispensed into row A and 100 μL of this culture were dispensed into rows B-H. Aminocoumarin compound (DMSO stock) were added to the first row and then the row was mixed by pipetting. 100 μL of culture from row A were transferred to row B and the serial dilution continued until the final 100 μL from row H were discarded. The plate was incubated without shaking in a 37° C. for 16 hours and then read by visible light spectrophotometer (Molecular Devices) at 600 nm. The minimal inhibitory concentration (MIC) was determined as the lowest concentration of compound concentration that inhibited the growth of bacteria.
(§3) The compounds of the invention were assessed for activities against the pathogens S. aureus RN4220 and MW2, E. cloacae 13047, A. baumannii 19606, K. pneumoniae 700721, E. coli MC4100, 25922. All activities are reported in micromolar (uM) and are 16 hour minimal inhibitory concentrations at 37° C. The assay is detailed in Example 11 and is titled “General Procedure for Determination of Minimal Inhibitory Concentrations.”

[2] = test system: A. baumannii 19606; assay: Minimal inhibitory concentration, A. baumannii 19606; details: 16 hour minimal inhibitory concentration at 37° C., read-out: MIC (μM) A. baumannii 19606
Experimental: as §1, §2, §3

[3] = test system: E. coli MC4100; assay: Minimal inhibitory concentration, E. coli MC4100; details: 16 hour minimal inhibitory concentration at 37° C., read-out: MIC (μM) E. coli MC4100 ara+
Experimental: as §1, §2, §3

[4] = test system: S. aureus MW2; assay: Minimal inhibitory concentration, S. aureus MW2; details: 16 hour minimal inhibitory concentration at 37° C., read-out: MIC (μM) S. aureus MW2 (MRSA)
Experimental: as §1, §2, §3

[5] = test system: K. pneumoniae 700721; assay: Minimal inhibitory concentration, K. pneumoniae 700721; details: 16 hour minimal inhibitory concentration at 37° C., read-out: MIC (μM) K. pneumoniae 700721
Experimental: as §1, §2, §3

[6] = test system: E. coli 25922; assay: Minimal inhibitory concentration, E. coli 25922; details: 16 hour minimal inhibitory concentration at 37° C., read-out: MIC (μM) E. coli 25922
Experimental: as §1, §2, §3

[7] = test system: S. aureus RN4220; assay: Minimal inhibitory concentration, S. aureus RN4220; details: 16 hour minimal inhibitory concentration at 37° C., read-out: MIC (μM) S. aureus RN4220
Experimental: as §1, §2, §3

[8] = Acinetobacter baumannii, 19606, 16 h
[9] = Staphylococcus aureus, MRSA, 16 h
[10] = Staphylococcus aureus, RN4220, 16 h

| SMILES | MIC ([1]; Enterobacter cloacae, 13047) | MIC [2, 8] | MIC ([3]; Escherichia coli, MC4100, 16 h) | MIC [4, 9] | MIC ([5]; Klebsiella pneumoniae, 700721) | MIC ([6]; Escherichia coli, 25922, 16 h) | MIC [7, 10] | MIC [1] | MIC [2] | MIC [3] | MIC [4] | MIC [5] | MIC [6] | MIC [7] |
| --- | --- | --- | --- | --- | --- | --- | --- | --- | --- | --- | --- | --- | --- | --- |
| CO[C@@H]1[C@@H](OC(N)=O)[C@@H](O)[C@H](Oc2ccc3c(O)c(NC(=O)c4ccc(C)c(Oc5ccccc5)c4)c(=O)oc3c2C)OC1(C)C [Compound 255] | 77 µM (≈ 48.9 µg/mL) | > 50 µM | 2.4 µM (≈ 1.52 µg/mL) | 5 µM (≈ 3.17 µg/mL) | 10 µM (≈ 6.35 µg/mL) | 5 µM (≈ 3.17 µg/mL) | 5 µM (≈ 3.17 µg/mL) |  |  |  |  |  |  |  |
| CO[C@@H]1[C@@H](OC(N)=O)[C@@H](O)[C@H](Oc2ccc3c(O)c(NC(=O)c4cccc(Nc5ccccc5)c4)c(=O)oc3c2C)OC1(C)C [Compound 218] | > 100 µM | > 50 µM | 80 µM (≈ 49.6 µg/mL) | 10 µM (≈ 6.2 µg/mL) | > 100 µM | 161 µM (≈ 99.8 µg/mL) | 10 µM (≈ 6.2 µg/mL) |  |  |  |  |  |  |  |
| CO[C@@H]1[C@@H](O)[C@@H](OC(=O)NC(C)(C)C)[C@H](Oc2ccc3c(O)c(NC(=O)c4ccc(O)c(CC=C(C)C)c4)c(=O)oc3c2C)OC1(C)C [Compound 106] |  |  |  |  |  |  |  | >100 µM | >50 µM | >200 µM | >100 µM | >100 µM | >200 µM | >100 µM |
| CO[C@@H]1[C@@H](O)[C@@H](OC(=O)c2cccn2C)[C@H](Oc2ccc3c(O)c(NC(=O)c4ccc(O)c(CC=C(C)C)c4)c(=O)oc3c2C)OC1(C)C [Compound 114] |  |  |  |  |  |  |  | >100 µM | >50 µM | >200 µM | 74 µM (≈ 50.1 µg/mL) | >100 µM | >200 µM | 74 µM (≈ 50.1 µg/mL) |
| CO[C@@H]1[C@@H](O)[C@@H](OC(=O)NC2CCCCC2)[C@H](Oc2ccc3c(O)c(NC(=O)c4ccc(O)c(CC=C(C)C)c4)c(=O)oc3c2C)OC1(C)C [Compound 110] |  |  |  |  |  |  |  | >100 µM | >50 µM | >200 µM | >100 µM | >100 µM | >200 µM | >100 µM |
| CO[C@@H]1[C@@H](OC(N)=O)[C@@H](O)[C@H](Oc2ccc3c(OCCCO)c(NC(=O)c4ccc(O)c(CC=C(C)C)c4)c(=O)oc3c2C)OC1(C)C [Compound 216] | > 100 µM | > 50 µM | > 200 µM | 19 µM (≈ 12.7 µg/mL) | > 100 µM | > 200 µM | 19 µM (≈ 12.7 µg/mL) |  |  |  |  |  |  |  |
| CO[C@@H]1[C@@H](OC(=O)Nc2ccccc2)[C@@H](O)[C@H](Oc2ccc3c(O)c(NC(=O)c4cccc(-c5ccc6ccccc6c5)c4)c(=O)oc3c2C)OC1(C)C [Compound 205] | > 100 µM | > 50 µM | > 200 µM | 9 µM (≈ 6.58 µg/mL) | > 100 µM | > 200 µM | 9 µM (≈ 6.58 µg/mL) |  |  |  |  |  |  |  |
| C#Cc1ccc(C(=O)Nc2c(O)c3ccc(O[C@@H]4OC(C)(C)[C@H](OC)[C@@H](OC(N)=O)[C@H]4O)c(C)c3oc2=O)cc1Oc1ccccc1 [Compound 257] | > 100 µM | > 50 µM | 39 µM (≈ 25.1 µg/mL) | 5 µM (≈ 3.22 µg/mL) | 71 µM (≈ 45.8 µg/mL) | 19 µM (≈ 12.2 µg/mL) | 5 µM (≈ 3.22 µg/mL) |  |  |  |  |  |  |  |
| CO[C@@H]1[C@@H](OC(N)=O)[C@@H](O)[C@H](Oc2ccc3c(O)c(NC(=O)c4cc(C)oc4C)c(=O)oc3c2C)OC1(C)C [Compound 200] | > 100 µM | > 50 µM | > 200 µM | 91 µM (≈ 49.7 µg/mL) | > 100 µM | > 200 µM | 91 µM (≈ 49.7 µg/mL) |  |  |  |  |  |  |  |
| CO[C@@H]1[C@@H](OC(N)=O)[C@@H](O)[C@H](Oc2ccc3c(O)c(NC(C)=O)c(=O)oc3c2C)OC1(C)C [Compound 102] |  |  |  |  |  |  |  | >100 µM | >50 µM | >200 µM | >100 µM | >100 µM | >200 µM | >100 µM |
| CO[C@@H]1[C@@H](OC(N)=O)[C@@H](O)[C@H](Oc2ccc3c(O)c(NS(=O)(=O)c4cccc(-c5ccccc5)c4)c(=O)oc3c2C)OC1(C)C [Compound 202] | > 100 µM | > 50 µM | > 200 µM | > 100 µM | > 100 µM | > 200 µM | > 100 µM |  |  |  |  |  |  |  |
| CO[C@@H]1[C@@H](OC(N)=O)[C@@H](O)[C@H](Oc2ccc3c(O)c(NC(=O)c4cccc(Oc5ccc(C(C)(C)C)cc5)c4)c(=O)oc3c2C)OC1(C)C [Compound 248] | > 100 µM | > 50 µM | > 200 µM | 2.3 µM (≈ 1.56 µg/mL) | > 100 µM | 148 µM (≈ 100 µg/mL) | 2.3 µM (≈ 1.56 µg/mL) |  |  |  |  |  |  |  |
| CO[C@@H]1[C@@H](OC(N)=O)[C@@H](O)[C@H](Oc2ccc3c(O)c(NC(=O)c4cccc(Oc5ccc(C)cc5)c4)c(=O)oc3c2C)OC1(C)C [Compound 221] | > 100 µM | > 50 µM | 10 µM (≈ 6.35 µg/mL) | 10 µM (≈ 6.35 µg/mL) | > 100 µM | 5 µM (≈ 3.17 µg/mL) | 10 µM (≈ 6.35 µg/mL) |  |  |  |  |  |  |  |
| CO[C@@H]1[C@@H](OC(N)=O)[C@@H](O)[C@H](Oc2ccc3c(O)c(NC(=O)C45CC6CC(CC(F)(C6)C4)C5)c(=O)oc3c2C)OC1(C)C [Compound 100] |  |  |  |  |  |  |  | >100 µM | >50 µM | >200 µM | 41 µM (≈ 24.8 µg/mL) | >100 µM | >200 µM | 83 µM (≈ 50.2 µg/mL) |
| CO[C@@H]1[C@@H](OC(N)=O)[C@@H](O)[C@H](Oc2ccc3c(O)c(NC(=O)c4cccc(Oc5ccccc5Cl)c4)c(=O)oc3c2C)OC1(C)C [Compound 246] | > 100 µM | > 50 µM | 79 µM (≈ 51.7 µg/mL) | 5 µM (≈ 3.28 µg/mL) | > 100 µM | 76 µM (≈ 49.8 µg/mL) | 10 µM (≈ 6.55 µg/mL) |  |  |  |  |  |  |  |
| CO[C@@H]1[C@@H](OC(N)=O)[C@@H](O)[C@H](Oc2ccc3c(OCC4CO4)c(NC(=O)c4ccc(O)c(CC=C(C)C)c4)c(=O)oc3c2C)OC1(C)C (some centres unmarked) [Compound 217] | > 100 µM | > 50 µM | > 200 µM | 9 µM (≈ 6.02 µg/mL) | > 100 µM | > 200 µM | 19 µM (≈ 12.7 µg/mL) |  |  |  |  |  |  |  |
| CO[C@@H]1[C@@H](OC(=O)c2ccc(C)n2-c2ccccc2)[C@@H](O)[C@H](Oc2ccc3c(O)c(NC(=O)c4ccc(O)c(CC=C(C)C)c4)c(=O)oc3c2C)OC1(C)C [Compound 210] | > 100 µM | > 50 µM | > 200 µM | 33 µM (≈ 24.8 µg/mL) | > 100 µM | > 200 µM | 33 µM (≈ 24.8 µg/mL) |  |  |  |  |  |  |  |
